The values below come from PubChem BioAssay (NCI).

What all share (experiment): growth of human tumour cells (NCI), 48 h
Assay [1] concerns UACC-62 melanoma.
The subject of assay [2] is HL-60(TB) leukemia.
Assay [3] deals with PC-3 prostate.
The subject of assay [4] is NCI-H522 lung.
In assay [5] the test system is SN12C renal.
For assay [6], the system named is OVCAR-3 ovarian.
Assay [7] deals with CAKI-1 renal.
For assay [8], the system named is M14 melanoma.
The subject of assay [9] is SNB-75 CNS.
Assay [10] relates to RXF 393 renal.
For assay [11], the system named is SK-MEL-2 melanoma.
Assay [12] concerns SK-MEL-5 melanoma.
The test system of assay [13] is MDA-MB-435.
The test system of assay [14] is HCT-15 colon.
The test system of assay [15] is HOP-62 NSCLC.
Assay [16] has as its system HS 578T breast.
Assay [17] relates to MOLT-4 leukemia.
The subject of assay [18] is A549 NSCLC.
Assay [19] deals with CCRF-CEM leukemia.
For assay [20], the system named is EKVX NSCLC.

Each structure is given as a SMILES string.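 How tested: cells in 96-well plates exposed to compound for 48 hours at five concentrations. Definition used: TGI = concentration required for complete inhibition of growth.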

With `O=c1cc(CO)oc(C(O)c2ccccc2)c1O` (stereo unspecified), the TGI in assay [1], in [2], in assay [3], in [4], in assay [5] and in [6] was above 100 µM each time. For the same compound, the TGI in assay [7], in assay [8], in [9], in assay [10], in assay [11] and in assay [12] was above 100 µM in each case. Further, the TGI in assay [13], in assay [14], in [15], in assay [16], in [17] and in assay [18] was above 100 µM throughout.
Regarding `Oc1cc(O)cc(-c2nc3cc(F)ccc3s2)c1`, the TGI is 40.7 µM in assay [1]; 83.6 µM in assay [3]; 36.9 µM in assay [4]; 76.4 µM in assay [5]; above 100 µM in assay [19]; 63.6 µM in [6]. For the same compound, the TGI in assay [7] is 53.8 µM; in assay [8], 50.1 µM; in assay [10], 72.4 µM; in assay [11], 45.1 µM; in [12], 37.1 µM; in [13], above 100 µM. The TGI was 61.6 µM in assay [14] and above 100 µM in assay [18].
In the case of `O=C(O/C=C\OC1CCCC1(c1ccccc1)c1ccccc1)c1ccccc1` (stereo unspecified), the TGI in assay [1] is 16.8 µM; in assay [2], 4.68 µM; in [3] it was 13.6 µM; in assay [4], 43 µM; in assay [5], 13.7 µM; in assay [19], 5.89 µM. In addition, the TGI in [6] is 21.3 µM; in [7], above 63.6 µM; in assay [8] it was 9.08 µM; in assay [9] it was 20.9 µM; in assay [20] it was 34.8 µM; in assay [10], 15 µM. For the same compound, the TGI in [11] was 15 µM; in assay [12], 23.8 µM; in assay [14], 5.72 µM; in assay [15], 36.9 µM; in assay [16], 23.6 µM; in [17], above 31 µM. Besides, the TGI in assay [18] was above 68.5 µM.
In the case of `C/C(=N/NC(=S)Nc1ccc(Cl)cc1)c1cccc(/C(C)=N\NC(=S)Nc2ccc(Cl)cc2)n1`, the TGI in [1] was 43.1 µM; in [3], above 100 µM; in [4], 27 µM; in assay [5] it was above 100 µM; in assay [19], above 100 µM; in assay [6], 47.1 µM. For the same compound, the TGI in assay [7] is 39.4 µM; in [8], 8.53 µM; in assay [9], above 100 µM; in [20] it was above 100 µM; in [10], 27.1 µM; in assay [11], 49.2 µM. For the same compound, the TGI in [12] is 18.6 µM; in [13], 55.8 µM; in assay [14], above 100 µM; in [15], 45 µM; in assay [17], 16.7 µM; in assay [18], 53.2 µM.
On to `CCOC(=O)c1nc2ccc(C(F)(F)F)cc2[nH]c1=O`, for which the TGI in assay [1], in assay [2], in assay [3], in [5], in assay [19] and in assay [6] was above 100 µM throughout. Further, the TGI in assay [7], in assay [8], in assay [10], in [11], in assay [12] and in assay [13] was above 100 µM throughout. Further, the TGI in [14], in assay [15], in assay [16], in assay [17] and in assay [18] was above 100 µM throughout.
Consider `Cc1cc(C)c(C(=O)c2nnc3ccccc3c2N)c(C)c1`, for which the TGI in assay [1] was 62.1 µM; in assay [2], 73.4 µM; in assay [3] it was 56.9 µM; in assay [5], 38.5 µM; in [19] it was above 100 µM; in assay [6] it was 36.6 µM. Further, the TGI in assay [7] turned out to be 75.9 µM; in assay [8], 34 µM; in [9] it was 86.3 µM; in assay [11], 31.9 µM; in assay [12], 26.8 µM; in [13] it was 56.3 µM. The TGI in assay [15] was 32.9 µM; in [16], 57.3 µM; in assay [17] it was above 100 µM; in assay [18], above 100 µM.
Take `COc1cc(C(C)=O)cc(C(=O)N(C(C)C)C(C)C)c1[Si](C)(C)C`: the TGI in assay [1], in assay [2], in assay [3], in assay [4], in [19] and in assay [6] was above 100 µM throughout. Further, the TGI is above 100 µM in assay [7]; above 100 µM in assay [8]; 56.4 µM in assay [9]; above 100 µM in assay [11]; above 100 µM in [12]; above 100 µM in assay [13]. In addition, the TGI in assay [14], in assay [15], in assay [16], in [17] and in assay [18] was above 100 µM each time.
As for `Cn1c(=O)oc2cc(C(O)CN3CCN(Cc4ccccn4)CC3)c(Cl)cc21` (stereo unspecified), the TGI in assay [1], in [2], in assay [3], in [4], in assay [5] and in [19] was above 100 µM each time. Moreover, the TGI in assay [6], in [7], in assay [8], in assay [9], in [20] and in [10] was above 100 µM in each case. In addition, the TGI in [13], in assay [14], in [15], in assay [17] and in assay [18] was above 100 µM in each case.
